The text below walks through data of PubChem BioAssay AID2124 (Sanford-Burnham Center for Chemical Genomics, 2009).

The nature of the experiment: cell-permeable autofluorescent compounds in GFP channel, dose response, artefact control, imaging, high-content imaging (AID 2124).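 As to all read-outs here: cells exposed to compound for 48 hours before fixing.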 The note with it: cells, GFP-channel autofluorescence, high-content imaging, at 10 µM; for z-score: stronger effect = higher value.

Results filed as inconclusive are left out. Calls of active or inactive are those of the source. No rule for the calls is given here; tested in MIN6 cells.

With `Cc1[nH]n(-c2ccc([N+](=O)[O-])cc2)c(=O)c1C=NCCN1CCN(C(=O)c2ccccc2F)CC1`, the z-score is -0.26 (inactive) and the cell count amounted to 3100 cells.

In the case of `OC1(c2cn(Cc3ccccc3)nn2)CCCCC1`, the z-score was -0.33 (inactive) and the cell count was determined as 3100 cells.

For the compound `O=C(CNC(=O)c1ccco1)OCC(=O)c1ccccc1`, the z-score is -0.33 (inactive) and the cell count was 3180 cells.

With `O=C1N/C(=N/Nc2ccccc2)S/C1=C\c1ccccc1`, the z-score was -0.26 (inactive) and the cell count came out at 3090 cells.

As for `CC(=O)Cc1cc(O)c2ccccc2c1OC(=O)c1ccc(Br)cc1`, the z-score was -0.26 (inactive) and the cell count was found to be 2650 cells.

For `O=c1ccnc(Nc2ccc3c(c2)OCCO3)[nH]1`, the z-score was -0.39 (inactive) and the cell count worked out at 2860 cells.

Regarding `O=c1ccc(NS(=O)(=O)c2ccccc2)cn1Cc1ccc(Cl)c(Cl)c1`, the z-score is -0.38 (inactive) and the cell count worked out at 3280 cells.

`N#C/C(=C/c1ccc(-c2ccccc2)o1)c1nc(-c2cccs2)cs1`: the z-score was 0.88 and the cell count came out at 3200 cells.

Regarding `Cn1ncc2c1ncn1nc(CCc3ccccc3)nc21`, the z-score was -0.33 (inactive) and the cell count was determined as 2710 cells.

Regarding `CC(C)CNC(=O)CSc1nnc(-c2cccc(S(=O)(=O)N3CCCCC3)c2)o1`, the z-score is -0.39 (inactive) and the cell count is 2900 cells.

With `CNC(=O)C1CC(=O)N/C(=N/N=C(\C)c2cccs2)S1` (stereo not given), the z-score was -0.38 (inactive) and the cell count came to 3440 cells.

As to `CC(C)(C)C(=O)c1sc2nc(-c3cccs3)cc(C(F)(F)F)c2c1N`, the z-score is -0.22 (inactive) and the cell count was 2740 cells.

With `NCC12CC3CC(C1)CC(CN)(C3)C2`, the z-score is -0.36 (inactive) and the cell count is 3300 cells.

On to `O=C(O)c1cc(-c2ccncc2)nc2ccc(F)cc12`, for which the z-score is -0.39 (inactive) and the cell count was determined as 3070 cells.

With `CNC(=S)NNC(=O)c1oc2nc(-c3ccccc3)cc(-c3ccco3)c2c1N`, the z-score is -0.3 (inactive) and the cell count came out at 2940 cells.

Turning to `CCN(CC)C(=O)c1sc2nc(-c3cccs3)cc(-c3cccs3)c2c1N`, the z-score is -0.2 (inactive) and the cell count is 3420 cells.

For the compound `COCCN(CCOC)Cc1cc(=O)oc2cc3c(cc12)CCC3`, the z-score is -0.38 (inactive) and the cell count is 3160 cells.

For `Cc1ccc(-c2cc(N)n(-c3ccccc3)n2)cc1`, the z-score is -0.33 (inactive) and the cell count was 3090 cells.

For `CCn1c(SCC(=O)c2c[nH]c3ccccc23)nc2cc(S(=O)(=O)N3CCOCC3)ccc21`, the z-score is -0.36 (inactive) and the cell count is 3200 cells.

`O=C(Nc1ccc(C2CCCCC2)cc1)C1CCCN(c2ncccn2)C1` (stereo not given): the z-score was -0.38 (inactive) and the cell count came out at 2990 cells.

Consider `CCCc1n[nH]c2c1C(=O)C(C(=O)OC)C(C)(C)C2` (stereo not given), for which the z-score was -0.39 (inactive) and the cell count stood at 3280 cells.

For `Cc1ccccc1SCc1noc(C(=O)NC(C)C)c1C(=O)O`, the z-score was -0.39 (inactive) and the cell count worked out at 3150 cells.

`CCN(CCNC(=O)C1CCCN(S(=O)(=O)CC)C1)c1ccccc1` (stereo not given): the z-score is -0.33 (inactive) and the cell count was found to be 3430 cells.

On to `O=C(O)CC12CSc3[nH]c(=O)sc3C1c1ccccc1OC2=O` (stereo not given), for which the z-score is -0.33 (inactive) and the cell count came to 3020 cells.

Consider `COC(=O)c1c[nH]n2c(=O)c(Cc3ccc(F)cc3Cl)c(C)nc12`, for which the z-score was -0.33 (inactive) and the cell count came to 3100 cells.

As to `N#C/C(=C/c1ccc(N2CCCCC2)o1)C(=O)Nc1ccc(Cl)cc1`, the z-score was 3 and the cell count was 2990 cells.

Take `CCOCCCNc1nc2c(C)cccn2c(=O)c1/C=C1\SC(=S)N(CC(C)C)C1=O`: the z-score was -0.38 (inactive) and the cell count came to 2900 cells.

Turning to `CCN(CC)c1ccc(/C=N/c2sc3c(c2C#N)C2CCN3CC2)c(O)c1`, the z-score is 1.45 and the cell count came to 2490 cells.

For `CN1C2CCC1/C(=C/c1cccn1C)C(=O)/C2=C\c1cccn1C`, the z-score is -0.29 (inactive) and the cell count came out at 3280 cells.

As to `Cc1ccccc1C(=O)N1CCc2ccccc2C1`, the z-score is -0.39 (inactive) and the cell count is 3270 cells.

`CN(C)/C=C1/Nc2ccccc2C1=O`: the z-score was -0.36 (inactive) and the cell count stood at 3060 cells.

For `COc1ccc(-n2c(Cc3cccn3C)nnc2SCC(=O)Nc2cccc(C)c2C)cc1`, the z-score was -0.33 (inactive) and the cell count is 3130 cells.

In the case of `CCN(CC)c1ccc2cc(S(=O)(=O)c3ccc(Cl)cc3)c(=O)oc2c1`, the z-score is -0.31 (inactive) and the cell count stood at 2590 cells.

With `CCN(CC)c1ccc2cc(-c3nc4ccccc4[nH]3)c(=O)oc2c1`, the z-score was 5.37 and the cell count was found to be 1680 cells.

Turning to `COCCNC(=O)Cc1ccc(F)cc1`, the z-score is -0.33 (inactive) and the cell count came to 2820 cells.

On to `COc1ccc(NC2=Nc3ccccc3N3C2=Nc2c(c(C)nn2-c2ccc(C)cc2)C3c2cccnc2)cc1` (stereo not given), for which the z-score was -0.31 (inactive) and the cell count was determined as 2790 cells.

With `CCc1cc2c(CN3CCN(CCO)CC3)cc(=O)oc2cc1O`, the z-score is -0.38 (inactive) and the cell count worked out at 3140 cells.

Regarding `CC1CCCCC1NC(=O)COC(=O)c1c2c(nc3ccccc13)/C(=C/c1ccco1)CC2` (stereo not given), the z-score was -0.35 (inactive) and the cell count worked out at 2820 cells.

For the compound `COC(=O)C1=C(N)n2c(s/c(=C\c3cccnc3)c2=O)=C(C(=O)OC)C1c1cccnc1` (stereo not given), the z-score is -0.25 (inactive) and the cell count is 2640 cells.

For the compound `CN(C)c1ccc(/C=C2\C(=N)N3C(=NC2=O)Sc2cc(S(C)(=O)=O)ccc23)cc1`, the z-score was -0.29 (inactive) and the cell count was determined as 2790 cells.

In the case of `CN(C)C(=O)C1C2NC(=S)N(c3cccc(Cl)c3)C1(C)Oc1ccc(Cl)cc12` (stereo not given), the z-score is -0.39 (inactive) and the cell count turned out to be 3180 cells.

With `N#CC1CC(c2ccc([N+](=O)[O-])cc2)=NN1c1ccc([N+](=O)[O-])cc1` (stereo not given), the z-score was -0.25 (inactive) and the cell count came out at 3490 cells.

Take `Cc1ccnc(N2C(=O)c3cccc4c([N+](=O)[O-])ccc(c34)C2=O)c1`: the z-score is 0.09 and the cell count is 350 cells.

Consider `COc1ccccc1NC(=O)COC(=O)C1CC2C=CC1C2` (stereo not given), for which the z-score is -0.25 (inactive) and the cell count is 2990 cells.

As for `N#C/C(=C\c1ccc(N2CCOCC2)o1)c1nc2ccccc2[nH]1`, the z-score is 0.96 and the cell count stood at 2400 cells.

On to `CCOc1ccc(C2C(C(=O)O)c3ccccc3C(=O)N2CCN2CCOCC2)cc1` (stereo not given), for which the z-score was -0.39 (inactive) and the cell count was 3370 cells.

As to `Cc1ccc(C(=O)NCCCn2ccnc2)cc1[N+](=O)[O-]`, the z-score was -0.39 (inactive) and the cell count was determined as 3010 cells.

In the case of `O=C(CSc1nc2ccc(Cl)cc2o1)NCc1ccc2c(c1)OCO2`, the z-score was -0.33 (inactive) and the cell count was determined as 3140 cells.

As to `Cc1nc2c(oc3ccccc32)c(=O)o1`, the z-score was -0.33 (inactive) and the cell count amounted to 3020 cells.

Take `O=c1c(N2CCOCC2)c(N2CCOCC2)c1=O`: the z-score is -0.39 (inactive) and the cell count stood at 3130 cells.

For `O=C(CC12CC3CC(CC(C3)C1)C2)NCC(=O)N1CCc2ccccc2C1`, the z-score is -0.33 (inactive) and the cell count was found to be 2920 cells.

For `CN(C)c1ccc(/C=C2\SC(=O)N(CC(O)Cn3c4ccccc4c4ccccc43)C2=O)cc1` (stereo not given), the z-score was -0.23 (inactive) and the cell count was determined as 3020 cells.

Take `CCCn1c(SCC(=O)NC2CCCCC2)nnc1-c1ccncc1`: the z-score was -0.25 (inactive) and the cell count came out at 2960 cells.

As to `CCOC(=O)c1ccc(CSc2nnc(-c3ccncc3)n2N)cc1`, the z-score is -0.33 (inactive) and the cell count is 3110 cells.

Take `Oc1c(C=NCc2ccc(F)cc2)[nH]c2ccc(Br)c(Cl)c12`: the z-score is -0.31 (inactive) and the cell count worked out at 3310 cells.

In the case of `CCN1C(=O)CSc2ccc(C(=O)NCc3ccccc3OC)cc21`, the z-score was -0.33 (inactive) and the cell count came out at 2980 cells.

As for `Cc1csc(NC(=O)CN(C)S(=O)(=O)c2cccc3cccnc23)n1`, the z-score was -0.33 (inactive) and the cell count amounted to 3250 cells.

Consider `O=C1S/C(=C/c2ccc(N3CCOCC3)o2)C(=O)N1Cc1ccc(F)cc1`, for which the z-score is 0.51 and the cell count is 3300 cells.

Regarding `COC(=O)c1cc2c(-c3ccccc3)cc3ccccn3c-2c1C(=O)OC`, the z-score is -0.23 (inactive) and the cell count is 2880 cells.

On to `COc1cc(N2CCCC2)c(OC)cc1/C=C1/NC(=S)NC1=O`, for which the z-score is 0.59 and the cell count was 2940 cells.

Consider `N#C/C(=C/c1ccc(N2CCCCC2)o1)C(=O)Nc1ccc2ccccc2c1`, for which the z-score was 5.59 and the cell count came to 3000 cells.

For `CCS(=O)(=O)N1Cc2ccccc2CC1C(=O)OCC(=O)Nc1ccc(C)cc1` (stereo not given), the z-score is -0.33 (inactive) and the cell count is 3150 cells.

With `COc1ccc(C2C(C(=O)N3CCOCC3)CCC(=O)N2c2ccc(OC)cc2)cc1` (stereo not given), the z-score is -0.26 (inactive) and the cell count was determined as 3020 cells.

For `Cc1ccc(SCc2cc(-c3ccc(Cl)cc3)no2)cc1`, the z-score was -0.38 (inactive) and the cell count was determined as 2860 cells.

Consider `Cc1ccc(-n2c3c(c(=O)[nH]c2=O)C(C(F)(F)F)(C(F)(F)F)NC(=O)N3)cc1`, for which the z-score was -0.33 (inactive) and the cell count is 2850 cells.
